Assay [1] concerns Cryptococcus neoformans. As to the kind of experiment: Antifungal activity against Cryptococcus neoformans by twofold dilution method. Format: functional.
Assay [2] relates to Aspergillus flavus. As to the kind of experiment: Antifungal activity against Aspergillus flavus by twofold dilution method. Format: functional.
Assay [3] relates to Pseudomonas aeruginosa. Nature of the assay: Antibacterial activity against Pseudomonas aeruginosa by twofold dilution method. Format: functional.
Assay [4] concerns Candida albicans. As to the kind of experiment: Antifungal activity against Candida albicans by twofold dilution method. It is filed as functional.
Assay [5] has as its system Rhizopus. Nature of the assay: Antifungal activity against Rhizopus sp. by twofold dilution method. Format: functional.
Assay [6] deals with Staphylococcus aureus. As to the kind of experiment: Antibacterial activity against Staphylococcus aureus by twofold dilution method. Format: functional.
Assay [7] relates to Salmonella enterica subsp. enterica. Nature of the assay: Antibacterial activity against Salmonella typhi by twofold dilution method. Format: functional, Salmonella enterica subsp. enterica serovar Typhi. The following applies: Salmonella enterica; read-out: MIC.
For assay [8], the system named is Aspergillus niger. As to the kind of experiment: Antifungal activity against Aspergillus niger by twofold dilution method. Format: functional.
In assay [9] the test system is Candida. Nature of the assay: Antifungal activity against Candida 51 by twofold dilution method. It is filed as functional.
In assay [10] the test system is Escherichia coli. As to the kind of experiment: Antibacterial activity against Escherichia coli by twofold dilution method. Format: functional.
Where [11] appears, read: Cryptococcus neoformans, read-out: MIC.
Where [12] appears, read: Aspergillus flavus, read-out: MIC.
Setting [13] is: Pseudomonas aeruginosa, read-out: MIC.
[14] abbreviates: Candida albicans, read-out: MIC.
The mark [15] stands for this setting: Staphylococcus aureus, read-out: MIC.
The mark [16] stands for this setting: Aspergillus niger, read-out: MIC.
Where [17] appears, read: Escherichia coli, read-out: MIC.

Values after ≈ are worked out from the molar mass of the structure shown. Where only a bound is given, the exact number is not on record here.

`CCOC(=O)C1/C(=N/OCc2ccccc2)CC(c2ccccc2)NC1c1ccccc1` (configuration not stated): the minimum inhibitory concentration (MIC) (as a rule, the smallest concentration in the dilution series that meets the test's criterion for growth inhibition) in [1] (setting [11]) worked out at 100 µg/mL (≈ 233 µM); in [2] (setting [12]), 100 µg/mL (≈ 233 µM); in assay [3] (setting [13]) it was 50 µg/mL (≈ 117 µM); in assay [4] (setting [14]), 50 µg/mL (≈ 117 µM); in [5] (Rhizopus, read-out: MIC), 200 µg/mL (≈ 467 µM); in assay [6] (setting [15]) it was 200 µg/mL (≈ 467 µM). Also, the MIC in assay [7] was found to be 200 µg/mL (≈ 467 µM); in assay [8] (setting [16]), 200 µg/mL (≈ 467 µM); in [9] (Candida, 51, read-out: MIC), 100 µg/mL (≈ 233 µM); in assay [10] (setting [17]), 100 µg/mL (≈ 233 µM).
For `CC(C)C1/C(=N/OCc2ccccc2)CC(c2ccccc2)NC1c1ccccc1` (configuration not stated), the MIC in assay [1] (setting [11]) is 100 µg/mL (≈ 251 µM); in assay [2] (setting [12]), 200 µg/mL (≈ 502 µM); in [3] (setting [13]) it was 200 µg/mL (≈ 502 µM); in assay [4] (setting [14]), 50 µg/mL (≈ 125 µM); in assay [5] (Rhizopus, read-out: MIC) it was 50 µg/mL (≈ 125 µM); in [6] (setting [15]), greater than 200 µg/mL. The MIC in [7] worked out at 100 µg/mL (≈ 251 µM); in assay [8] (setting [16]), 200 µg/mL (≈ 502 µM); in [9] (Candida, 51, read-out: MIC) it was 200 µg/mL (≈ 502 µM); in [10] (setting [17]), 100 µg/mL (≈ 251 µM).
On to `COc1ccc([C@@H]2CC(=NOCc3ccccc3)C[C@@H](c3ccc(OC)cc3)S2)cc1`, for which the MIC stood at 12.5 µg/mL (≈ 28.8 µM) in [1] (setting [11]); 25 µg/mL (≈ 57.7 µM) in [2] (setting [12]); 25 µg/mL (≈ 57.7 µM) in [3] (setting [13]); 25 µg/mL (≈ 57.7 µM) in [4] (setting [14]); 50 µg/mL (≈ 115 µM) in [5] (Rhizopus, read-out: MIC); 50 µg/mL (≈ 115 µM) in [6] (setting [15]). Besides, the MIC in [7] turned out to be 50 µg/mL (≈ 115 µM); in assay [8] (setting [16]) it was 25 µg/mL (≈ 57.7 µM); in assay [9] (Candida, 51, read-out: MIC), 25 µg/mL (≈ 57.7 µM); in assay [10] (setting [17]) it was 50 µg/mL (≈ 115 µM).
On to `COc1ccc(C2CC(=NOCc3ccccc3)CC(c3ccc(OC)cc3)N2)cc1` (configuration not stated), for which the MIC in [1] (setting [11]) is 100 µg/mL (≈ 240 µM); in assay [2] (setting [12]) it was 100 µg/mL (≈ 240 µM); in [3] (setting [13]) it was 50 µg/mL (≈ 120 µM); in assay [4] (setting [14]) it was 100 µg/mL (≈ 240 µM); in assay [5] (Rhizopus, read-out: MIC), 50 µg/mL (≈ 120 µM); in assay [6] (setting [15]), 50 µg/mL (≈ 120 µM). Besides, the MIC in [7] stood at 50 µg/mL (≈ 120 µM); in [8] (setting [16]), 100 µg/mL (≈ 240 µM); in assay [9] (Candida, 51, read-out: MIC) it was 50 µg/mL (≈ 120 µM); in assay [10] (setting [17]), 100 µg/mL (≈ 240 µM).
Turning to `CC1/C(=N\OCc2ccccc2)CC(c2ccccc2)OC1c1ccccc1` (configuration not stated), the MIC in assay [1] (setting [11]) is 100 µg/mL (≈ 269 µM); in [2] (setting [12]) it was 200 µg/mL (≈ 538 µM); in assay [3] (setting [13]) it was 100 µg/mL (≈ 269 µM); in assay [4] (setting [14]) it was 100 µg/mL (≈ 269 µM); in assay [5] (Rhizopus, read-out: MIC), 200 µg/mL (≈ 538 µM); in assay [6] (setting [15]), 100 µg/mL (≈ 269 µM). Besides, the MIC in [7] turned out to be 200 µg/mL (≈ 538 µM); in [8] (setting [16]), 200 µg/mL (≈ 538 µM); in assay [9] (Candida, 51, read-out: MIC), 100 µg/mL (≈ 269 µM); in [10] (setting [17]), 100 µg/mL (≈ 269 µM).
For the compound `Cc1ccc(C2CC(=NOCc3ccccc3)CC(c3ccc(C)cc3)N2)cc1` (configuration not stated), the MIC in assay [1] (setting [11]) amounted to 200 µg/mL (≈ 520 µM); in assay [2] (setting [12]) it was 100 µg/mL (≈ 260 µM); in assay [3] (setting [13]) it was 50 µg/mL (≈ 130 µM); in assay [4] (setting [14]), 200 µg/mL (≈ 520 µM); in [5] (Rhizopus, read-out: MIC), 100 µg/mL (≈ 260 µM); in [6] (setting [15]), 200 µg/mL (≈ 520 µM). Also, the minimum inhibitory concentration (MIC) came to 100 µg/mL (≈ 260 µM) in [7]; 200 µg/mL (≈ 520 µM) in [8] (setting [16]); 100 µg/mL (≈ 260 µM) in [9] (Candida, 51, read-out: MIC); 200 µg/mL (≈ 520 µM) in assay [10] (setting [17]).
For `c1ccc(CO/N=C2\C[C@@H](c3ccccc3)S[C@@H](c3ccccc3)C2)cc1` (relative stereo), the MIC in assay [1] (setting [11]) is greater than 200 µg/mL; in assay [2] (setting [12]), greater than 200 µg/mL; in [3] (setting [13]), 200 µg/mL (≈ 535 µM); in assay [4] (setting [14]), greater than 200 µg/mL; in assay [5] (Rhizopus, read-out: MIC), 200 µg/mL (≈ 535 µM); in assay [6] (setting [15]) it was greater than 200 µg/mL. Besides, the MIC in assay [7] turned out to be 100 µg/mL (≈ 268 µM); in assay [8] (setting [16]), 100 µg/mL (≈ 268 µM); in [9] (Candida, 51, read-out: MIC), 200 µg/mL (≈ 535 µM); in assay [10] (setting [17]) it was 200 µg/mL (≈ 535 µM).
As to `c1ccc(CON=C2C[C@@H](c3ccccc3)S[C@H](c3ccccc3)C2)cc1` (relative stereo), the MIC in assay [1] (setting [11]) was 200 µg/mL (≈ 535 µM); in [2] (setting [12]), 100 µg/mL (≈ 268 µM); in assay [3] (setting [13]) it was greater than 200 µg/mL; in assay [4] (setting [14]), 200 µg/mL (≈ 535 µM); in assay [5] (Rhizopus, read-out: MIC), greater than 200 µg/mL; in assay [6] (setting [15]), greater than 200 µg/mL. Also, the MIC is 200 µg/mL (≈ 535 µM) in [7]; 200 µg/mL (≈ 535 µM) in [8] (setting [16]); greater than 200 µg/mL in assay [9] (Candida, 51, read-out: MIC); 200 µg/mL (≈ 535 µM) in assay [10] (setting [17]).
For `Cc1ccc(C2OC(c3ccc(C)cc3)C(C)C(=NOCc3ccccc3)C2C)cc1` (stereo in doubt; 7d2), the MIC in [1] was determined as 25 µg/mL (≈ 60.5 µM); in assay [2], 25 µg/mL (≈ 60.5 µM); in assay [3], 25 µg/mL (≈ 60.5 µM); in assay [4], 6.25 µg/mL (≈ 15.1 µM); in assay [5], 25 µg/mL (≈ 60.5 µM); in assay [6] it was 25 µg/mL (≈ 60.5 µM). For the same compound, the MIC in [8] was 50 µg/mL (≈ 121 µM); in [9], 6.25 µg/mL (≈ 15.1 µM); in [10], 50 µg/mL (≈ 121 µM).
For `C[C@@H]1[C@H](O)[C@@H](C)/C=C/C=C/C=C/C=C/C=C/C=C/C=C/[C@H](O[C@@H]2O[C@H](C)[C@@H](O)[C@H](N)[C@@H]2O)C[C@@H]2O[C@](O)(C[C@@H](O)C[C@@H](O)[C@H](O)CC[C@@H](O)C[C@@H](O)CC(=O)O[C@H]1C)C[C@H](O)[C@H]2C(=O)O` [AMPHOTERICIN B], the minimum inhibitory concentration (MIC) in assay [1] (setting [11]) stood at 25 µg/mL (≈ 27.1 µM); in [2] (setting [12]), 50 µg/mL (≈ 54.1 µM); in assay [4] (setting [14]) it was 25 µg/mL (≈ 27.1 µM); in assay [5] (Rhizopus, read-out: MIC) it was 25 µg/mL (≈ 27.1 µM); in assay [8] (setting [16]), 50 µg/mL (≈ 54.1 µM); in assay [9] (Candida, 51, read-out: MIC) it was 25 µg/mL (≈ 27.1 µM).
`O=C(O)c1cn(C2CC2)c2cc(N3CCNCC3)c(F)cc2c1=O` [CIPROFLOXACIN]: the minimal inhibitory concentration (MIC) was found to be 50 µg/mL (≈ 151 µM) in [7] and 25 µg/mL (≈ 75.4 µM) in assay [10] (setting [17]).

The values above are taken from ChEMBL document CHEMBL1158420, “Synthesis, spectral, crystal and antimicrobial studies of biologically potent oxime ethers of nitrogen, oxygen and sulfur heterocycles” (2009).
